US20080287396A1, “Phosphonated Fluoroquinolones, Antibacterial Analogs Thereof, and Methods for the Prevention and Treatment of Bone and Joint Infections” (TARGANTA THERAPEUTICA INC., priority 2005, published 2008)
Like-named read-outs stand apart in the source and are kept apart here.

Key:
[1] = Bone powder binding, fluorometric detection; conditions: 1 mg/ml compound, bone meal powder 10 mg/ml in PBS, 37° C., 1 h
Outline: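 LC/MS method: 100 μM compound in 0.1 M Tris-HCl pH 7, 0.15 M NaCl shaken 10 min with or without ground rat tibia, centrifuged, unbound compound measured in supernatant. Fluorometric method: 1 mg/ml compound in 10 mg/ml bone meal/PBS, 1 h at 37 °C, pellet washed. Supernatant fluoroquinolone read at 280/465 nm; bound amount taken as input minus recovered.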

[2] = Regeneration of drug from bone powder-bound prodrug; format: in vitro ADME; conditions: PBS vs serum
[3] = Levels of bisphosphonated prodrugs in rat tibia in vivo; conditions: for half-life: female, CD, tibia (bone); for concentration of prodrug present in bone, in words: single IV bolus (49: 18.8; 52: 15.8; 54: 17.4 mg/kg)
Description: In order to investigate the bone binding and rate of decomposition of bisphosphonated fluoroquinolone prodrugs in vivo, rats were treated with bisphosphonated moxifloxacin prodrug 52 or bisphosphonated gatifloxacin prodrug 49 or 54 and the drug content of their tibiae was analyzed at different time points after injection. Female CD rats (age, 57 to 70 days; n=5/group; Charles River, St-Constant, Canada) were administered a single bolus intravenous (tail vein) dose of compound 49, 52 or 54 (dissolved in 0.85% NaCl) at respectively 18.8 mg/kg (equivalent to 9 mg/kg of 15), 15.8 mg/kg (equivalent to 10 mg/kg of 3) and 17.4 mg/kg (equivalent to 10 mg/kg of 15) of body weight. Animals were humanely sacrificed at specified time points after i.v. dosing to evaluate the levels of 49, 52 or 54 in the bone. Tibiae were recovered by dissection, cleaned from soft tissues, ground using a metal ball mill (Retsch MM301™) and kept at −80° C. before determination of the drug concentration of the bone.
The experimentally obtained ground bone powder was suspended in 5% formic acid in methanol (500 mg/1.6 mL). The mixture was vortexed for 10 min and centrifuged for 10 min at 10 000 g. The resulting pellet was dried, weighed and used for the determination of the amount of bisphosphonated prodrug.
For the dosage of the prodrug in the tibia, the standards, QCs (Quality Controls) and blanks were prepared (in duplicate) as follows: to 20 mg of dry blank tibia powder were added a spiking solution (10 μL) of prodrug and 990 μL of buffer (0.1M tris-HCl, pH 7, 0.15M NaCl); the mixture was vortexed for 10 min (RT), centrifuged for 15 min at 10 000 g (RT), the supernatant discarded and the pellet kept for the cleavage procedure. The range of the standards (6 levels) was from 0.05 to 10 μM and the QC levels were 0.075, 0.75 and 7.5 μM.
To each standard, QC, blank and experimental sample tibia bone pellet (20 mg of dry weight) was added 500 μL 6N NaOH for the cleavage of the prodrug into the drug (moxifloxacin 3 or gatifloxacin 15). After an incubation at 50° C. for 1 hour (for 49) or 2 hours (for 52 and 54), the mixture was acidified with 6N HCl (500 μL) and the internal standard (gatifloxacin 15 for 52 and moxifloxacin 3 for 49 and 54) was added. After a centrifugation of 15 min at 10 000 g (RT), the supernatant was extracted on a Strata™ cartridge (30 mg/l ml), using 100% methanol as the eluent. The eluent was evaporated to dryness under a stream of argon and the dried residue was reconstituted in 200 μL of the mobile phase used in the LC/MS analysis by vortexing for 15 min. After centrifugation for 15 min at 10 000 g, 20 μL of the supernatant was injected into the LC/MS analyser.
The quantity of drug resulting from the cleavage of the prodrug was analyzed on an Agilent 1100™ series LC/MSD trap. The supernatant was injected into a Zorbax™ SB-Aq column (2×30 mm, 3.5μ), using 0.1% formic acid in water: 0.1% formic acid in acetonitrile (85:15) as the mobile phase at a flow rate of 0.3 mL/min. […] The detected ions were determined in single reaction mode (SRM).
For the determination of 52, moxifloxacin 3 was analyzed for m/z 402.2 and the internal standard (gatifloxacin 15) for m/z 376.1→332.1.
For the determination of 49 and 54, gatifloxacin 15 was analyzed for m/z 376.1→332.1 and the internal standard (moxifloxacin 3) was analyzed for m/z 402.2.

[4] = rat, single IV bolus (52: 15.8 mg/kg; 54: 17.4 mg/kg), 7-28 days after injection, read-out: half-life of prodrug in bone (tibia) (converted)

Row | half-life ([3]; rat tibia, IV bolus 15.8 mg/kg, 5 min to 24 h, read-out: half-life for the accumulation process in bone) [days] | SMILES | Binding to bone (%) Fluorescence [1] [%] | effect of the medium (presence or absence of serum) on regeneration rate [2] | half-life [3, 4] [days] | concentration of prodrug present in bone, in words ([3]; rat tibia)
1 | < 0.0417 | COc1c(N2C[C@@H]3CCCN[C@@H]3C2)c(F)cc2c(=O)c(C(=O)OCC(=O)NC(P(=O)(O)O)P(=O)(O)O)cn(C3CC3)c12 [Compound 52, (1,1-Bisphosphonomethylcarbamoyl)methyl 1-cyclopropyl-6-fluoro-1,4-dihydro-7-((4aS,7aS)-octahydropyrrolo[3,4-b]pyridin-6-yl)-8-methoxy-4-oxoquinoline-3-carboxylate] | 98.7 | fairly similar rates | 20 | high concentrations
2 |  | COc1c(N2CCNC(C)C2)c(F)cc2c(=O)c(C(=O)OCC(=O)NC(P(=O)(O)O)P(=O)(O)O)cn(C3CC3)c12 (stereo not drawn) [Compound 54, (1,1-Bisphosphonomethylcarbamoyl)methyl 7-(3-methylpiperazin-1-yl)-1-cyclopropyl-6-fluoro-1,4-dihydro-8-methoxy-4-oxoquinoline-3-carboxylate] | 91 | rate deceleration | 21 | high concentrations
